The source of these data is ChEMBL document CHEMBL1155421, “Evaluation of a 4-aminopiperidine replacement in several series of CCR5 antagonists” (Bioorg Med Chem Lett, 2010).

In test [1] the test system is Human immunodeficiency virus 1. The test is described as follows: Antiviral activity against HIV1 NLBal infected JC53BL cells assessed as inhibition of replication by luciferase reporter assay. The format is functional, organism-based. As to conditions: Human immunodeficiency virus 1, NLBal. A general note: Reporter assays use an easily measured gene product as a stand-in for the process of interest.

Test [2] addresses C-C chemokine receptor type 5 (Homo sapiens, UniProt P51681). The test is described as follows: Displacement of […] from CCR5 receptor receptors expressed in CHO cells. The format is cell-based.

What is called IC50 is the concentration needed to halve the response being measured.

Chain of C-C chemokine receptor type 5 (P51681 whole entry): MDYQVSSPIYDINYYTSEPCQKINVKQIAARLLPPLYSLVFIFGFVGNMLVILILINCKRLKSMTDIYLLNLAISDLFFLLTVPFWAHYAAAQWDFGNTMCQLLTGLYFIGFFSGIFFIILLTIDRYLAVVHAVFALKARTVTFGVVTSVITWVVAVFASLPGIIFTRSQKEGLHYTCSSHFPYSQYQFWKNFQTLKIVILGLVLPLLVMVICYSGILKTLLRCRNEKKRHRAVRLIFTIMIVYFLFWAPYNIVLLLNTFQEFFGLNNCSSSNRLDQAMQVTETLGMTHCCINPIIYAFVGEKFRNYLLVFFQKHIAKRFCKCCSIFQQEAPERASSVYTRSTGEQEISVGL

Regarding `COC[C@@H](c1ccc(C(F)(F)F)cc1)N1CCN(C2C[C@@H]3CN(C(=O)c4c(C)ncnc4C)C[C@@H]3C2)C[C@@H]1C` (some centres undefined), the IC50 in test [1] is greater than 625 nM; in test [2] it was greater than 500 nM.
The matching figures for `COC[C@@H](c1ccc(C(F)(F)F)cc1)N1CCN(C2C[C@@H]3CN(C(=O)c4c(C)ccnc4C)C[C@@H]3C2)C[C@@H]1C` (some centres undefined): greater than 625 nM and greater than 500 nM.
Consider `COC[C@@H](c1ccc(C(F)(F)F)cc1)N1CCN(C2C[C@@H]3CN(C(=O)c4c(C)cc(C#N)nc4C)C[C@@H]3C2)C[C@@H]1C` (some centres undefined), for which the IC50 in test [1] was greater than 625 nM; in test [2], greater than 500 nM.
The corresponding values for `CCO[C@H]1Cc2cc(C(F)(F)F)ccc2[C@@H]1N1CCN(C2C[C@@H]3CN(C(=O)c4c(C)ncnc4C)C[C@@H]3C2)C[C@@H]1C` (some centres undefined) are greater than 625 nM and 92 nM.
The corresponding values for `CCO[C@H]1Cc2cc(C(F)(F)F)ccc2[C@@H]1N1CCN(C2C[C@@H]3CN(C(=O)c4c(C)ccnc4C)C[C@@H]3C2)C[C@@H]1C` (some centres undefined) are 357 nM and 98 nM.
The matching figures for `CCO[C@H]1Cc2cc(C(F)(F)F)ccc2[C@@H]1N1CCN(C2C[C@@H]3CN(C(=O)c4c(C)cc(C#N)nc4C)C[C@@H]3C2)C[C@@H]1C` (some centres undefined): 59 nM and 45 nM.
`CCCC[C@H]1CN(CC2CCOCC2)C(=O)OC12CCN(C1C[C@@H]3CN(C(=O)c4c(C)ncnc4C)C[C@@H]3C1)CC2` (some centres undefined): the IC50 amounted to 262 nM in test [1] and 14 nM in test [2].
The corresponding values for `CCCC[C@H]1CN(CC2CCOCC2)C(=O)OC12CCN(C1C[C@@H]3CN(C(=O)c4c(C)cc(C#N)nc4C)C[C@@H]3C1)CC2` (some centres undefined) are 9 nM and 15 nM.
In the case of `CCCC[C@H]1CN(CC2CCOCC2)C(=O)OC12CCN(C1(C)C[C@H]3CN(C(=O)c4c(C)ncnc4C)C[C@H]3C1)CC2` (some centres undefined), the IC50 in test [1] was no less than 625 nM; in test [2], 25 nM.
The matching figures for `CCCC[C@H]1CN(CC2CCOCC2)C(=O)OC12CCN(C1(C)C[C@H]3CN(C(=O)c4c(C)cc(C#N)nc4C)C[C@H]3C1)CC2` (some centres undefined): 18 nM and 61 nM.
The corresponding values for `CCCC[C@H]1CN(C[C@H]2CC[C@H](OCC)CC2)C(=O)OC12CCN(C1C[C@@H]3CN(C(=O)c4c(C)ncnc4C)C[C@@H]3C1)CC2` (some centres undefined) are 19 nM and 44 nM.
The matching figures for `CCCC[C@H]1CN(C[C@H]2CC[C@H](OCC)CC2)C(=O)OC12CCN(C1C[C@@H]3CN(C(=O)c4c(C)ccnc4C)C[C@@H]3C1)CC2` (some centres undefined): 4 nM and 34 nM.
Regarding `CCCC[C@H]1CN(C[C@H]2CC[C@H](OC(C)C)CC2)C(=O)OC12CCN(C1C[C@@H]3CN(C(=O)c4c(C)ncnc4C)C[C@@H]3C1)CC2` (some centres undefined), the IC50 in test [1] came out at 12 nM; in test [2], 23 nM.
For the molecule `CCCC[C@H]1CN(C[C@H]2CC[C@H](OC3CC3)CC2)C(=O)OC12CCN(C1C[C@@H]3CN(C(=O)c4c(C)ncnc4C)C[C@@H]3C1)CC2` (some centres undefined), the IC50 in test [1] came out at 12 nM; in test [2] it was 27 nM.
Take `CCCC[C@H]1CN(CC2CCOCC2)C(=O)OC12CCN(C1(C)CCN(C(=O)c3c(C)ncnc3C)CC1)CC2`: the IC50 in test [2] is 4 nM.
